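Assay format: 96-well plates, 48-hour exposure. At the GI50, growth is halved.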 Calls of active or inactive are those of the source. Cut-off read from the data, not from the text of the source: active = GI50 up to about 1.1 µM and inactive = higher. Non-standard residues stand in square brackets, D forms with d. Residues, ends and D or L forms follow the SMILES beside them.
Experiments:
Assay in all cases: NCI anticancer screen, dose series, 48 h
HCT-15 = system: HCT-15
U-251 = system: U-251
HCT-116 = system: HCT-116
SK-MEL-28 = system: SK-MEL-28
HCC 2998 = system: HCC 2998
MDA-MB-435 = system: MDA-MB-435
MDA-N = system: MDA-N
T47D = system: T47D
NCI-H460 = system: NCI-H460
PC-3 = system: PC-3
NCI-H23 = system: NCI-H23
KM12 = system: KM12
NCI/ADR-RES = system: NCI/ADR-RES
A549 = system: A549
SK-MEL-2 = system: SK-MEL-2
HOP-92 = system: HOP-92
RXF 393 = system: RXF 393
BT-549 = system: BT-549
CAKI-1 = system: CAKI-1

## CCN(CC)CCOCCn1c2c(c3ccccc31)CCCC2
HCT-15
  GI50: 16.3 µM
U-251
  GI50: 17.2 µM (inactive)
HCT-116
  GI50: 15.8 µM (inactive)
SK-MEL-28
  GI50: 17 µM (inactive)
HCC 2998
  GI50: 16.8 µM (inactive)
MDA-MB-435
  GI50: 17.8 µM (inactive)
MDA-N
  GI50: 17.2 µM (inactive)
T47D
  GI50: 20.6 µM (inactive)
NCI-H460
  GI50: 22.8 µM (inactive)
PC-3
  GI50: 17.8 µM (inactive)
NCI-H23
  GI50: 35.8 µM (inactive)
KM12
  GI50: 34.5 µM (inactive)
NCI/ADR-RES
  GI50: 12.7 µM (inactive)
A549
  GI50: 23.9 µM (inactive)
SK-MEL-2
  GI50: 15.7 µM (inactive)
HOP-92
  GI50: 20.9 µM (inactive)

## CC1(C)CCC[C@]2(C)[C@@H]1CC[C@@]13O[C@@H]1C1=C(CO)C(=O)OC1=C[C@@H]23
HCT-15
  GI50: 14.4 µM
U-251
  GI50: 24.4 µM (inactive)
HCT-116
  GI50: 1.44 µM (inactive)
SK-MEL-28
  GI50: 16.6 µM (inactive)
HCC 2998
  GI50: 18.9 µM (inactive)
RXF 393
  GI50: 19.9 µM (inactive)
MDA-MB-435
  GI50: 20.5 µM (inactive)
NCI-H460
  GI50: 18.2 µM (inactive)
PC-3
  GI50: 14.9 µM (inactive)
NCI-H23
  GI50: 17.5 µM (inactive)
BT-549
  GI50: 22 µM (inactive)
KM12
  GI50: 11.9 µM (inactive)
NCI/ADR-RES
  GI50: 15.8 µM (inactive)
CAKI-1
  GI50: 18.8 µM (inactive)
A549
  GI50: 10.4 µM (inactive)
SK-MEL-2
  GI50: 22.8 µM (inactive)
HOP-92
  GI50: 15.4 µM (inactive)

## FC1(F)[Se]C2C3CCC(C3)C2C1(F)F (centres undefined)
HCT-15
  GI50: > 100 µM
U-251
  GI50: > 100 µM (inactive)
HCT-116
  GI50: 56.2 µM (inactive)
SK-MEL-28
  GI50: > 100 µM (inactive)
HCC 2998
  GI50: > 100 µM (inactive)
RXF 393
  GI50: > 100 µM (inactive)
MDA-MB-435
  GI50: > 100 µM (inactive)
MDA-N
  GI50: > 100 µM (inactive)
T47D
  GI50: > 100 µM (inactive)
NCI-H460
  GI50: > 100 µM (inactive)
PC-3
  GI50: > 100 µM (inactive)
KM12
  GI50: > 100 µM (inactive)
NCI/ADR-RES
  GI50: > 100 µM (inactive)
CAKI-1
  GI50: > 100 µM (inactive)
A549
  GI50: > 100 µM (inactive)
SK-MEL-2
  GI50: > 100 µM (inactive)

## O=Cc1ccc2[nH]c(=O)oc2c1
HCT-15
  GI50: > 100 µM
U-251
  GI50: 84.5 µM (inactive)
HCT-116
  GI50: > 100 µM (inactive)
SK-MEL-28
  GI50: > 100 µM (inactive)
RXF 393
  GI50: 94.8 µM (inactive)
MDA-MB-435
  GI50: > 100 µM (inactive)
MDA-N
  GI50: > 100 µM (inactive)
NCI-H460
  GI50: > 100 µM (inactive)
PC-3
  GI50: > 100 µM (inactive)
NCI-H23
  GI50: > 100 µM (inactive)
BT-549
  GI50: > 100 µM (inactive)
KM12
  GI50: > 100 µM (inactive)
NCI/ADR-RES
  GI50: > 100 µM (inactive)
CAKI-1
  GI50: > 100 µM (inactive)
SK-MEL-2
  GI50: > 100 µM (inactive)

## Cc1cc(-c2cscn2)c(O)c([N+](=O)[O-])c1
HCT-15
  GI50: 38.4 µM
HCT-116
  GI50: 49.7 µM (inactive)
HCC 2998
  GI50: 81.3 µM (inactive)
MDA-MB-435
  GI50: 74.3 µM (inactive)
MDA-N
  GI50: 74.3 µM (inactive)
NCI-H460
  GI50: 34.2 µM (inactive)
PC-3
  GI50: 41.4 µM (inactive)
NCI-H23
  GI50: 58.3 µM (inactive)
BT-549
  GI50: 77.6 µM (inactive)
NCI/ADR-RES
  GI50: 46.5 µM (inactive)
CAKI-1
  GI50: 43 µM (inactive)
A549
  GI50: 46.6 µM (inactive)
SK-MEL-2
  GI50: 85.1 µM (inactive)
HOP-92
  GI50: 93.5 µM (inactive)

## O=C1CNc2cc(N3CCOCC3)ccc2N1
HCT-15
  GI50: > 100 µM
U-251
  GI50: > 100 µM (inactive)
HCT-116
  GI50: > 100 µM (inactive)
SK-MEL-28
  GI50: > 100 µM (inactive)
HCC 2998
  GI50: > 100 µM (inactive)
RXF 393
  GI50: > 100 µM (inactive)
MDA-MB-435
  GI50: > 100 µM (inactive)
T47D
  GI50: > 100 µM (inactive)
NCI-H460
  GI50: > 100 µM (inactive)
PC-3
  GI50: > 100 µM (inactive)
NCI-H23
  GI50: > 100 µM (inactive)
BT-549
  GI50: > 100 µM (inactive)
KM12
  GI50: > 100 µM (inactive)
NCI/ADR-RES
  GI50: > 100 µM (inactive)
CAKI-1
  GI50: > 100 µM (inactive)
A549
  GI50: > 100 µM (inactive)
SK-MEL-2
  GI50: > 100 µM (inactive)
HOP-92
  GI50: > 100 µM (inactive)

## CSCC[C@H](NC(=O)[C@@H](N)CC(N)=O)C(=O)N[C@@H](Cc1c[nH]c2ccccc12)C(=O)N[C@@H](CCC(N)=O)C(=O)N[C@@H](CCC(=O)O)C(=O)N[C@H](C(=O)NCC(=O)N[C@@H](CCCCN)C(=O)N[C@H](C)C(=O)O)C(C)C (H-NMWQEVGK[dA]-OH)
HCT-15
  GI50: > 100 µM
U-251
  GI50: > 100 µM (inactive)
HCT-116
  GI50: > 100 µM (inactive)
SK-MEL-28
  GI50: > 100 µM (inactive)
HCC 2998
  GI50: > 100 µM (inactive)
RXF 393
  GI50: > 100 µM (inactive)
MDA-MB-435
  GI50: > 100 µM (inactive)
MDA-N
  GI50: > 100 µM (inactive)
T47D
  GI50: > 100 µM (inactive)
NCI-H460
  GI50: > 100 µM (inactive)
PC-3
  GI50: > 100 µM (inactive)
NCI-H23
  GI50: > 100 µM (inactive)
KM12
  GI50: > 100 µM (inactive)
NCI/ADR-RES
  GI50: > 100 µM (inactive)
CAKI-1
  GI50: > 100 µM (inactive)
A549
  GI50: > 100 µM (inactive)
HOP-92
  GI50: > 100 µM (inactive)

## CCOC(=O)N1CCC(=C2c3ccc(Cl)cc3CCc3cccnc32)CC1 [LORATADINE]
HCT-15
  GI50: 7.55 µM
HCT-116
  GI50: 11.2 µM (inactive)
SK-MEL-28
  GI50: 5.57 µM (inactive)
HCC 2998
  GI50: 10 µM (inactive)
RXF 393
  GI50: 6.71 µM (inactive)
MDA-MB-435
  GI50: 8.83 µM (inactive)
MDA-N
  GI50: 4.55 µM (inactive)
T47D
  GI50: 13.3 µM (inactive)
NCI-H460
  GI50: 3.44 µM (inactive)
PC-3
  GI50: 10.4 µM (inactive)
NCI-H23
  GI50: 15.8 µM (inactive)
KM12
  GI50: 10.6 µM (inactive)
NCI/ADR-RES
  GI50: 6.56 µM (inactive)
A549
  GI50: 13.4 µM (inactive)
SK-MEL-2
  GI50: 11.2 µM (inactive)
HOP-92
  GI50: 10 µM (inactive)

Source: ChEMBL document CHEMBL1201862, “PubChem BioAssay data set” (2004)
